For one experiment, the system named is Zea mays. The experiment can be described thus: Example 4 post-emergence application A-1, B and C-19, ZEAMX. Type of experiment: in vivo. The settings on record: growth stage 12, 21 DAT, g ai/ha: A-1 2, B 50, C-19 30. Here is the method:
(§1) In the examples below, using the method of S. R. Colby (1967) “Calculating synergistic and antagonistic responses of herbicide combinations”, Weeds 15, p. 22ff., the value E, which is expected if the activity of the individual active compounds is only additive, was calculated:
(§2) [formula] • where • X=percent activity using active herbicide A at an application rate a; • Y=percent activity using active herbicide B (e.g. mesotrione) at an application rate b; • E=expected activity (in %) by A+B at application rates a+b.
(§3) If the value found experimentally is higher than the value E calculated according to Colby, a synergistic effect is present.
(§4) Evaluation was carried out using a scale from 0 to 100. 100 means no emergence of the plants, or complete destruction of at least the above-ground parts, and 0 means no damage or normal course of growth. A good herbicidal activity is given at values of at least 70, and very good herbicidal activity is given at values of at least 85.
(§5) Post-Emergence Application of Herbicide A-1 (A-1), Mesotrione (B) and Pyroxasulfone (C-19)
(§6) Herbicide A-1 (342 g/l), mesotrione (100 g/l) and pyroxasulfone (500 g/l) were, together with addition of 0.5 v/v % MSO (methylated sed oil) as adjuvant, formulated in water as distribution medium (water volume 200 l/ha) and sprayed with commercial flat fan nozzles.

Another experiment has as its system Commelina benghalensis. As to the kind of experiment: Example 4 post-emergence application A-1, B and C-19, COMBE. The class given is in vivo. The settings on record: growth stage 13, 21 DAT, g ai/ha: A-1 1, B 50, C-19 30. Here is the method: as §1, §2, §3, §4, §5, §6

This is an account of results in patent US12543736B2, “Herbicidal compositions comprising mesotrione” (BASF SE, priority 2024, dated 2026).

Regarding `Cn1nc(C(F)(F)F)c(CS(=O)(=O)C2=NOC(C)(C)C2)c1OC(F)F` [C-19, pyroxasulfone], the “% herbicidal activity” value in the experiment with Zea mays worked out at 0%; in the experiment on Commelina benghalensis, 15%.
